Tests used:
[1] = biological target: 5-hydroxytryptamine receptor 6 (Homo sapiens, UniProt P50406); assay: Displacement of [3H]-LSD from human 5-HT6R expressed in HEK293 cells; type: cell-based
Rattus norvegicus = assay: Antidepressant activity in Wistar rat assessed as decrease in immobility time at 0.3 mg/kg, ip administered 60 mins prior to testing measured for 5 mins by forced swim test; type: functional; design: scale not given: the % may be the effect or the level left

5-hydroxytryptamine receptor 6, sequence (P50406 whole entry): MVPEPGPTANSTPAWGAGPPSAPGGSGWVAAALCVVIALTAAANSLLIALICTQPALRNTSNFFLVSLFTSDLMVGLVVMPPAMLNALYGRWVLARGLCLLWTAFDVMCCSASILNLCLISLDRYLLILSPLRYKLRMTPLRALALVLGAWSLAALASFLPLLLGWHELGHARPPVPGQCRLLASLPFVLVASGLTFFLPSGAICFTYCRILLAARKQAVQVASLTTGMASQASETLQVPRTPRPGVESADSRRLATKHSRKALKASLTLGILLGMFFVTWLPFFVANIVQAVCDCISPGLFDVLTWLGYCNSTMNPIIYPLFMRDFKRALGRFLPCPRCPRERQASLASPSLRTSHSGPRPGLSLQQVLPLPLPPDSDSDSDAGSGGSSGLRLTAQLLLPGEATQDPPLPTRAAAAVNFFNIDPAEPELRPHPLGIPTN

Ki [1] | SMILES | Activity (Rattus norvegicus)
88 nM | CN1CCN(c2nc(N)nc(Cc3ccccc3F)n2)CC1 | 
32 nM | CN1CCN(c2nc(N)nc(Cc3ccc(Cl)c(Cl)c3)n2)CC1 | 
22 nM | CN1CCN(c2nc(N)nc(Cc3c[nH]c4ccccc34)n2)CC1 | 37%
28 nM | CN1CCN(c2nc(N)nc(Cc3cccc(Cl)c3)n2)CC1 | 29%
 | Cc1cccc(Cc2nc(N)nc(N3CCN(C)CC3)n2)c1 | 30%
80 nM | Cc1ccccc1Cc1nc(N)nc(N2CCN(C)CC2)n1 | 
440 nM | COc1ccc(Cc2nc(N)nc(N3CCN(C)CC3)n2)cc1 | 
193 nM | COc1ccccc1Cc1nc(N)nc(N2CCN(C)CC2)n1 | 
64 nM | Cc1ccc(Cc2nc(N)nc(N3CCN(C)CC3)n2)cc1 | 
1830 nM | CN1CCN(c2nc(N)nc(Cc3ccncc3)n2)CC1 | 
56 nM | CN1CCN(c2nc(N)nc(Cc3ccccc3Cl)n2)CC1 | 
95 nM | CN1CCN(c2nc(N)nc(Cc3ccccc3)n2)CC1 | 
100 nM | CN1CCN(c2nc(N)nc(Cc3ccc(F)cc3)n2)CC1 | 
64 nM | CN1CCN(c2nc(N)nc(Cc3cccc(F)c3)n2)CC1 | 
158 nM | COc1cccc(Cc2nc(N)nc(N3CCN(C)CC3)n2)c1 | 
20 nM | CN1CCN(c2nc(N)nc(Cc3cccc4ccccc34)n2)CC1 | 
305 nM | CN1CCN(c2nc(N)nc(Cc3cccs3)n2)CC1 | 

Source: ChEMBL document CHEMBL4033662, “The computer-aided discovery of novel family of the 5-HT6 serotonin receptor ligands among derivatives of 4-benzyl-1,3,5-triazine” (Eur J Med Chem, 2017)
